Results on 3 molecules are retold here after ChEMBL document CHEMBL1131371, “H-phosphonate derivatives as novel peptide deformylase inhibitors” (Bioorg Med Chem Lett, 1998).

For one data set, the target named is T1, Peptide deformylase (Escherichia coli, UniProt Q9JN24).
T1 sequence (Q9JN24 whole entry): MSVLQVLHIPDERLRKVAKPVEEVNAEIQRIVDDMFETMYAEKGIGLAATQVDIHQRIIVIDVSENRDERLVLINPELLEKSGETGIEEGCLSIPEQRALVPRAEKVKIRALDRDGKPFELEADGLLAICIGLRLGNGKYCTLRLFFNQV
The experiment in a line: Compound was evaluated for inhibitory activity against Peptide deformylase.

Data set [1] can be described thus: Compound was evaluated for inhibitory activity against Zn2+ deformylase.
Substrate in data set [2]: CCCC[C@H](O[PH](=O)O)C(=O)N[C@@H](CC(C)C)C(=O)Nc1ccc([N+](=O)[O-])cc1
Description: Apparent KM against enzyme peptide deformylase (PDF)

Regarding `CCCC[C@H](O[PH](=O)O)C(=O)N[C@@H](CC(C)C)C(=O)Nc1ccc([N+](=O)[O-])cc1`, the values for the inhibition constant (Ki) (on Peptide deformylase; in data set [1]) were 37 µM and 76 µM, respectively.

The molecule `CCCC[C@@H](O[PH](=O)O)C(=O)N[C@@H](CC(C)C)C(=O)Nc1ccc([N+](=O)[O-])cc1` displayed an inhibition constant (Ki) on Peptide deformylase of 125 µM.

B1: Peptide deformylase, mitochondrial (Homo sapiens), Q9HBH1 (protein)
chain: MARLWGALSLWPLWAAVPWGGAAAVGVRACSSTAAPDGVEGPALRRSYWRHLRRLVLGPPEPPFSHVCQVGDPVLRGVAAPVERAQLGGPELQRLTQRLVQVMRRRRCVGLSAPQLGVPRQVLALELPEALCRECPPRQRALRQMEPFPLRVFVNPSLRVLDSRLVTFPEGCESVAGFLACVPRFQAVQISGLDPNGEQVVWQASGWAARIIQHEMDHLQGCLFIDKMDSRTFTNVYWMKVND
In the case of B1, in data set [2], the Km was 20 µM.
